Target: T1, chimpanzee GPR105 protein (Pan troglodytes, UniProt A0A2J8P2M1)
T1 construct: expressed in transfected cells
T1 sequence (A0A2J8P2M1 1-338): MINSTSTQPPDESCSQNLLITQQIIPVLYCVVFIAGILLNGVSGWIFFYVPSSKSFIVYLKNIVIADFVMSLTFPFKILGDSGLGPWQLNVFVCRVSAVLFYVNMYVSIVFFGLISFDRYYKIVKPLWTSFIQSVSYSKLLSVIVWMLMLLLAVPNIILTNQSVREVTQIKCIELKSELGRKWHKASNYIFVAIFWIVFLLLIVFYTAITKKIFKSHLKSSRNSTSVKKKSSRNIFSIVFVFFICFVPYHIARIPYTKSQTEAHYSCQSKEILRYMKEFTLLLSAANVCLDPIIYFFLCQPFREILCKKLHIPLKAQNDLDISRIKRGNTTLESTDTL
Assay: Cell-Binding Assay: inhibition of UDP-glucose-induced Ca2+ signaling (FLIPR) in HEK/GPR105/Gqi5 cells
Assay type: cell-based
Settings: HEK cells expressing chimpanzee GPR105 and Gqi5, UDP-glucose agonist at EC80
Experimental: A stable HEK clonal cell line expressing the chimpanzee GPR105 protein and the chimeric G protein Gqi5 was developed. The chimeric Gqi5 forces the coupling of GPR105 through the Gq (calcium) pathway and allows for monitoring of calcium signaling using a calcium binding fluorescent dye and the FLIPR (fluorometric imaging plate reader, MDS Sciex). […] Cells were incubated overnight at 37° C. and 5% CO2 to form a monolayer. On the following day, 30 μL of fluorescent no-wash dye was added to the cell monolayer and the plate was incubated for 60 min at 37° C., 5% CO2. […] of compound in 100% DMSO was added to cell/dye incubation using acoustic dispensing (Echo™, Labcyte). Following a 20 minute incubation of compound at room temperature, 6.25 μL of UDP-glucose agonist (at EC80) in Hank's Balanced Salt Solution (HBSS) containing 20 mM Hepes was added to cells and Ca^2+ signaling was monitored by FLIPR. Quantitation of the % inhibition of Ca^2+ signaling by antagonist was calculated using the maximum fluorescent signal detected. IC50's for the compounds of structural formula (I) were calculated as follows: […]

| SMILES | IC50 [nM] |
| --- | --- |
| CCc1cc(NC(=O)N2CCc3nc(-c4cccnc4)nc(-c4ccccc4C)c3C2)cc(Oc2ccccc2)c1 | 8.1 |
| Cc1ccccc1-c1nc(-c2cccnc2)nc2c1CN(C(=O)Nc1cccc(-c3ccc(C(N)=O)cc3)c1)CC2 | 18.4 |
| CCc1cc(NC(=O)N2CCc3nc(-c4cccnc4)nc(-c4ccccc4C)c3C2)cc(-c2cn(C)cn2)c1 | 5.6 |
| CCc1cncc(NC(=O)N2CCc3nc(-c4cccnc4)nc(-c4ccccc4C)c3C2)c1 | 55.7 |
| CCc1cc(Cl)cc(NC(=O)N2CCc3nc(-c4cncnc4)nc(-c4ccccc4C)c3C2)c1 | 10.5 |
| CCc1cccc(NC(=O)N2CCc3nc(-c4ccnn4C)nc(-c4ccccc4C)c3C2)c1 | 34.5 |
| CCc1cc(NC(=O)N2CCc3nc(-c4cccnc4)nc(-c4ccccc4C)c3C2)cc(-c2ccc(C(=O)O)cc2)c1 | 4 |
| CCc1cccc(NC(=O)N2CCc3nc(-c4ccc(C#N)nc4)nc(-c4ccccc4C)c3C2)c1 | 7.8 |
| CCc1cccc(NC(=O)N2CCc3nc(-c4cscc4C)nc(-c4ccccc4C)c3C2)c1 | 65.1 |
| CCc1cccc(NC(=O)N2CCc3nc(-c4ccnc(F)c4)nc(-c4ccccc4C)c3C2)c1 | 12 |
